Where a SMILES comes first, the peptide text is derived from it. [ ]: non-standard residue; d: D form. The star is where a group is joined. Tle = CC(C)(C)[C@H](N)C(=O)O; Ac6c = NC1(C(=O)O)CCCCC1; Aib = CC(C)(N)C(=O)O; NHiPr = CC(C)N*; Sar = CNCC(=O)O
Key:
Format in all cases: cell-based
rat AT1aR [1] = target: T1, rat AT1aR (Rattus norvegicus, UniProt P25095); assay: IP1 accumulation assay (IP1 G-protein assay), rat AT1aR; settings: for Emax: read-out: Span (relative to hAngII)
T1 sequence (P25095 1-359): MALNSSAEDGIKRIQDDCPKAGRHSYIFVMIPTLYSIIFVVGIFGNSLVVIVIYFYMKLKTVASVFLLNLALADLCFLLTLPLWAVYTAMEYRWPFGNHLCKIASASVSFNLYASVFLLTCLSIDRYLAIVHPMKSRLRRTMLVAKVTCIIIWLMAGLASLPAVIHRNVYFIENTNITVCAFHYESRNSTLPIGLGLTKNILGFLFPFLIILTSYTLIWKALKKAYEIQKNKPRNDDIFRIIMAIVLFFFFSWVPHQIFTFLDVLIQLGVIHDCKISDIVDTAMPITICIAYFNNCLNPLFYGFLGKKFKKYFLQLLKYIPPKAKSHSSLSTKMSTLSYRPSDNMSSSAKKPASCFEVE
Experimental: (§1) A secondary measure of G protein coupling efficacy was also performed. IP3 is generated by activation of phospholipase C by Gα-q. IP3 is degraded to IP1, which can be forced to accumulate in cells by blocking degradation with lithium chloride. Thus we measured accumulation of IP1 to determine ligand efficacy for G protein activation.
(§2) IP1 accumulation generated by human and rat angiotensin 2 type 1 receptor (human AT1R and rat AT1aR, respectively) was measured with IP-One Tb kits purchased from Cisbio and used per the manufacturer's instructions. Clonal stably transfected cell lines expressing human AT1TR or rat AT1aR were used for all experiments.
(§3) For assays, 4,000-8,000 cells were seeded per well in 384-well small-volume microplates “HiBase” small-volume plate in volumes of 20 uL and allowed to grow overnight at 37° C. in 5% CO2. Cell growth media was then replaced with stimulation buffer supplied by Cisbio containing 50 mM lithium chloride. […] For agonist detection, peptides were then further diluted in stimulation buffer to add peptide to the cells to reach final concentrations ranging from 100 uM to 1 pM. Following addition of peptides, cells were incubated at 37° C. in 5% CO2 for 30 minutes and then lysed with 4 uL of pre-mixed HTRF IP-One reagents diluted per manufacturer's instructions (Cisbio). Microplates were incubated for 60-90 minutes at room temperature and then time-resolved fluorescence intensities were measured using a PHERAstar Plus microplate reader from BMG Labtech. IP1 accumulation was measured as change in ratio of time-resolved fluorescent intensities measured at 665 nm and 620 nm.

human AT1R [2] = target: T2, human AT1R (Homo sapiens, UniProt P30556); assay: beta-arrestin2 recruitment assay (PathHunter), human AT1R; settings: for Emax: 1 h, read-out: Span (relative to hAngII)
T2 sequence (P30556 1-359): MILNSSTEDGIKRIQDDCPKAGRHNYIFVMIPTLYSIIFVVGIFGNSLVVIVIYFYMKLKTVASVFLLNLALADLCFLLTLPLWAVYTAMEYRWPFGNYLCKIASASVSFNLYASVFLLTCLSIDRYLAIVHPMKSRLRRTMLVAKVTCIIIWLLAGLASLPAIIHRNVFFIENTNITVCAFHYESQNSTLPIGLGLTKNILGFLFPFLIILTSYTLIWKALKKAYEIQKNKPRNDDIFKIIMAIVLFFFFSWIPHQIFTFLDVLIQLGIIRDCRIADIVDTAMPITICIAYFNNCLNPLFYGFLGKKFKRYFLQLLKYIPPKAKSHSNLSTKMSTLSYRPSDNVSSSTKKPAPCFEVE
Experimental: (§4) The proximal event in β-arrestin function mediated by GPCRs is recruitment to receptors following ligand binding and receptor phosphorylation by GRK's. Thus, the measure of β-arrestin recruitment was used to determine ligand efficacy for β-arrestin function.
(§5) B-arrestin-2 recruitment to the human and rat angiotensin 2 type 1 receptor (human AT1R and rat AT1aR, respectively) was measured with the PathHunter™ μl-arrestin assay (DiscoveRx Corporation, Fremont Calif.). Cells, plasmid(s), and detection reagent(s) were purchased from DiscoveRx, and assays were performed per manufacturer's instructions. Human AT1R and rat AT1aR were cloned into the pCMV-ProLink vector, verified by sequencing, and transfected into PathHunter β-arrestin HEK293 cells. Stably transfected clonal cell lines were selected with Hygromycin and G418. These clonal cell lines were used for all experiments.
(§6) For assays, 4,000-8,000 cells were seeded per well in 384-well microplates “HiBase” small-volume plate in volumes of 20 uL and grown overnight in the incubator (37° C., 5% CO2, saturated humidity). Peptides were dissolved in DMSO to a concentration of 10 mM. Peptides were then further diluted in assay buffer (Hank's balanced salt solution with 20 mM HEPES) to add peptide to the cells to reach final concentrations ranging from 100 μM to 1 pM. Cells were then incubated for 60 minutes at 37° C. in 5% CO2, followed by addition of 2 μL of PathHunter Detection Reagent to each well. The microplates were then incubated at room temperature for 60 minutes, and then luminescence was measured using a PHERAstar Plus microplate reader from BMG Labtech. B-arrestin-2 recruitment to receptors was measured as relative luminescence intensity expressed in arbitrary units.

rat AT1aR [3] = target: T1, rat AT1aR; assay: beta-arrestin2 recruitment assay (PathHunter), rat AT1aR; settings: for Emax: 1 h, read-out: Span (relative to hAngII)
Experimental: as §4, §5, §6

human AT1R [4] = target: T2, human AT1R; assay: IP1 accumulation assay (IP1 G-protein assay), human AT1R; settings: for Emax: read-out: Span (relative to hAngII)
Experimental: as §1, §2, §3

SMILES	EC50 (rat AT1aR [1]; read-out: EC50) [nM]	Emax (rat AT1aR [1]) [%]	EC50 (rat AT1aR [1]; read-out: pEC50 (converted)) [nM]	Emax (human AT1R [2]) [%]	EC50 (human AT1R [2]; read-out: EC50) [nM]	EC50 (human AT1R [2]; read-out: pEC50 (converted)) [nM]	Emax (rat AT1aR [3]) [%]	EC50 (rat AT1aR [3]; read-out: EC50) [nM]	EC50 (rat AT1aR [3]; read-out: pEC50 (converted)) [nM]	Emax (human AT1R [4]) [%]	EC50 (human AT1R [4]; read-out: EC50) [nM]	EC50 (human AT1R [4]; read-out: pEC50 (converted)) [nM]	EC50 (nM) (rat AT1aR [3])	pEC50 (rat AT1aR [3])
CNCC(=O)N[C@@H](CCCNC(=N)N)C(=O)N[C@H](C(=O)N[C@@H](Cc1ccc(O)cc1)C(=O)NC1(C(=O)N[C@@H](Cc2c[nH]cn2)C(=O)N2CCC[C@H]2C(=O)N[C@@H](CC(=O)O)C(=O)O)CCCCC1)C(C)C [SEQ ID NO: 44, Sar-Arg-Val-Tyr-cyHex-His-Pro-Asp] (H-[Sar]RVY[Ac6c]HPD-OH)	> 0.6	< 104	> 0.631	< 101	> 3.2	> 3.16	< 105	> 3.2	> 3.16					
CNCC(=O)N[C@@H](CCSC)C(=O)N[C@H](C(=O)N[C@@H](Cc1ccc(O)cc1)C(=O)NC1(C(=O)N[C@@H](Cc2c[nH]cn2)C(=O)N2CCC[C@H]2C(=O)N[C@@H](C)C(=O)O)CCCCC1)C(C)C [SEQ ID NO: 45, Sar-Met-Val-Tyr-cyHex-His-Pro-Ala] (H-[Sar]MVY[Ac6c]HPA-OH; N-terminus and C-terminus assumed)				< 101			< 105			< 103				
CNCC(=O)N[C@@H](CCCNC(=N)N)C(=O)N[C@H](C(=O)N[C@@H](Cc1ccc(O)cc1)C(=O)NC1(C(=O)N[C@@H](Cc2c[nH]cn2)C(=O)N2CCC[C@H]2C(=O)NC(C)C)CCCCC1)C(C)C [SEQ ID NO: 46, Sar-Arg-Val-Tyr-cyHex-His-Pro-NH-i-Pr] (H-[Sar]RVY[Ac6c]HP-NHiPr)				< 101	> 3.2	> 3.16	< 105	> 3.2	> 3.16	< 103	> 1.3	> 0.631		
CNCC(=O)N[C@@H](CCCNC(=N)N)C(=O)N[C@H](C(=O)N[C@@H](Cc1ccc(O)cc1)C(=O)NC1(C(=O)N[C@@H](Cc2c[nH]cn2)C(=O)N2CCC[C@H]2C(=O)N[C@@H](CCCNC(=N)N)C(=O)O)CCCCC1)C(C)C [SEQ ID NO: 42, Sar-Arg-Val-Tyr-cyHex-His-Pro-Arg] (H-[Sar]RVY[Ac6c]HPR-OH)				< 101	> 3.2	> 3.16	< 105	> 3.2	> 3.16	< 103	> 1.3	> 0.631		
CNCC(=O)N[C@@H](CCCNC(=N)N)C(=O)N[C@H](C(=O)N[C@@H](Cc1ccc(O)cc1)C(=O)N1CCC[C@H]1C(=O)N[C@@H](Cc1c[nH]cn1)C(=O)N1CCC[C@H]1C(=O)N[C@@H](CO)C(=O)O)C(C)C [SEQ ID NO: 8, Sar-Arg-Val-Tyr-Pro-His-Pro-Ser] (H-[Sar]RVYPHPS-OH; N-terminus and C-terminus assumed)				< 101			< 105			< 103				
CNCC(=O)N[C@@H](CCCNC(=N)N)C(=O)N[C@H](C(=O)N[C@@H](Cc1ccc(O)cc1)C(=O)NC(C)(C)C(=O)N[C@@H](Cc1c[nH]cn1)C(=O)N1CCC[C@H]1C(=O)N[C@H](C(=O)O)C(C)C)C(C)C [SEQ ID NO: 33, Sar-Arg-Val-Tyr-AA01-His-Pro-Val] (H-[Sar]RVY[Aib]HPV-OH)				< 101	> 3.2	> 3.16	< 105	> 3.2	> 3.16	< 103	> 1.3	> 0.631		
CNCC(=O)N[C@@H](CCCCN)C(=O)N[C@H](C(=O)N[C@@H](Cc1ccc(O)cc1)C(=O)NC1(C(=O)N[C@@H](Cc2c[nH]cn2)C(=O)N2CCC[C@H]2C(=O)N[C@@H](C)C(=O)O)CCCCC1)C(C)C [SEQ ID NO: 51, Sar-Lys-Val-Tyr-cyHex-His-Pro-Ala] (H-[Sar]KVY[Ac6c]HPA-OH)				< 101	> 3.2	> 3.16	< 105	> 3.2	> 3.16	< 103	> 1.3	> 0.631		
CC[C@H](C)[C@H](NC(=O)[C@@H]1CCCN1C(=O)[C@H](Cc1c[nH]cn1)NC(=O)[C@@H]1CCCN1C(=O)[C@H](Cc1ccc(O)cc1)NC(=O)[C@@H](NC(=O)[C@H](CCCNC(=N)N)NC(=O)CNC)C(C)C)C(=O)O [SEQ ID NO: 4, Sar-Arg-Val-Tyr-Pro-His-Pro-Ile] (H-[Sar]RVYPHPI-OH; N-terminus and C-terminus assumed)				< 101			< 105			< 103				
CNCC(=O)N[C@@H](CCCNC(=N)N)C(=O)N[C@H](C(=O)N[C@@H](Cc1ccc(O)cc1)C(=O)NC(C)(C)C(=O)N[C@@H](Cc1c[nH]cn1)C(=O)N1CCC[C@H]1C(=O)N[C@H](C(=O)O)[C@@H](C)O)C(C)C [SEQ ID NO: 40, Sar-Arg-Val-Tyr-AA01-His-Pro-Thr] (H-[Sar]RVY[Aib]HPT-OH)				< 101	> 3.2	> 3.16	< 105	> 3.2	> 3.16					
CCCCc1nc(Cl)c(CO)n1Cc1ccc(-c2ccccc2-c2nn[nH]n2)cc1 [losartan, reference compound]		< 104											Inactive	Inactive
CNCC(=O)N[C@@H](CCCNC(=N)N)C(=O)N[C@H](C(=O)N[C@@H](Cc1ccc(O)cc1)C(=O)N[C@H](C(=O)N[C@@H](Cc1c[nH]cn1)C(=O)N1CCC[C@H]1C(=O)N[C@H](C(=O)O)[C@@H](C)O)C(C)(C)C)C(C)C [SEQ ID NO: 30, Sar-Arg-Val-Tyr-AA02-His-Pro-Thr] (H-[Sar]RVY[Tle]HPT-OH)				< 101	> 3.2	> 3.16	< 105	> 3.2	> 3.16					
